pEC50, pIC50: −log10 of the molar value. Structures can show the parent of a compound that is named as a salt. Where two headings read alike, the source gives them in different places.
What was measured:
HBV core protein = HBV core protein (UniProt P03146); format: biochemical; details: read-out: Assembly Activity (IC50); BODIPY-FL labelled core protein, assembly started with NaCl, read after 6 min
Procedure: Biochemical Capsid Assembly Assay
The screening for assembly effector activity was done based on a fluorescence quenching assay published by Zlotnick et al. (2007). The C-terminal truncated core protein containing 149 amino acids of the N-terminal assembly domain was fused to a unique cysteine residue at position 150 and was expressed in E. coli using the pET expression system (Merck Chemicals, Darmstadt). Purification of core dimer protein was performed using a sequence of size exclusion chromatography steps. In brief, the cell pellet from 1 L BL21 (DE3) Rosetta2 culture expressing the coding sequence of core protein cloned NdeI/XhoI into expression plasmid pET21b was treated for 1 h on ice with a native lysis buffer (Qproteome Bacterial Protein Prep Kit; Qiagen, Hilden). After a centrifugation step the supernatant was precipitated during 2 h stirring on ice with 0.23 g/ml of solid ammonium sulfate. Following further centrifugation the resulting pellet was resolved in buffer A (100 mM Tris, pH 7.5; 100 mM NaCl; 2 mM DTT) and was subsequently loaded onto a buffer A equilibrated CaptoCore 700 column (GE HealthCare, Frankfurt). The column flow through containing the assembled HBV capsid was dialyzed against buffer N (50 mM NaHCO3 pH 9.6; 5 mM DTT) before urea was added to a final concentration of 3M to dissociate the capsid into core dimers for 1.5 h on ice. The protein solution was then loaded onto a 1 L Sephacryl S300 column. After elution with buffer N core dimer containing fractions were identified by SDS-PAGE and subsequently pooled and dialyzed against 50 mM HEPES pH 7.5; 5 mM DTT. To improve the assembly capacity of the purified core dimers a second round of assembly and disassembly starting with the addition of 5 M NaCl and including the size exclusion chromatography steps described above was performed. From the last chromatography step core dimer containing fractions were pooled and stored in aliquots at concentrations between 1.5 to 2.0 mg/ml at −80° C.
Immediately before labelling the core protein was reduced by adding freshly prepared DTT in a final concentration of 20 mM. After 40 min incubation on ice storage buffer and DTT was removed using a Sephadex G-25 column (GE HealthCare, Frankfurt) and 50 mM HEPES, pH 7.5. For labelling 1.6 mg/ml core protein was incubated at 4° C. and darkness overnight with BODIPY-FL maleimide (Invitrogen, Karlsruhe) in a final concentration of 1 mM. After labelling the free dye was removed by an additional desalting step using a Sephadex G-25 column. Labelled core dimers were stored in aliquots at 4° C. In the dimeric state the fluorescence signal of the labelled core protein is high and is quenched during the assembly of the core dimers to high molecular capsid structures. The screening assay was performed in black 384 well microtiter plates in a total assay volume of 10 μl using 50 mM HEPES pH 7.5 and 1.0 to 2.0 μM labelled core protein. Each screening compound was added in 8 different concentrations using a 0.5 log-unit serial dilution starting at a final concentration of 100 μM, 31.6 μM or 10 μM. In any case the DMSO concentration over the entire microtiter plate was 0.5%. The assembly reaction was started by the injection of NaCl to a final concentration of […] which induces the assembly process to approximately 25% of the maximal quenched signal. 6 min after starting the reaction the fluorescence signal was measured using a Clariostar plate reader (BMG Labtech, Ortenberg) with an excitation of 477 nm and an emission of 525 nm. As 100% and 0% assembly control HEPES buffer containing 2.5 M and 0 M NaCl was used. Experiments were performed thrice in triplicates. EC50 values were calculated by non-linear regression analysis using the Graph Pad Prism 6 software (GraphPad Software, La Jolla, USA).

HBV = assay: Determination of HBV DNA from the supernatants of HepAD38 cells (anti-HBV activity); format: cell-based, hepatitis B virus; details: Hepatitis B virus, read-out: Cell Activity (EC50)
Procedure: Determination of HBV DNA from the Supernatants of HepAD38 Cells
The anti-HBV activity was analysed in the stable transfected cell line HepAD38, which has been described to secrete high levels of HBV virion particles (Ladner et al., 1997). In brief, HepAD38 cells were cultured at 37° C. at 5% CO2 and 95% humidity in 200 μl maintenance medium, which was Dulbecco's modified Eagle's medium/Nutrient Mixture F-12 (Gibco, Karlsruhe), 10% fetal bovine serum (PAN Biotech Aidenbach) supplemented with 50 μg/ml penicillin/streptomycin (Gibco, Karlsruhe), 2 mM L-glutamine (PAN Biotech, Aidenbach), 400 μg/ml G418 (AppliChem, Darmstadt) and 0.3 μg/ml tetracycline. Cells were subcultured once a week in a 1:5 ratio, but were usually not passaged more than ten times. For the assay 60,000 cells were seeded in maintenance medium without any tetracycline into each well of a 96-well plate and treated with serial half-log dilutions of test compound. To minimize edge effects the outer 36 wells of the plate were not used but were filled with assay medium. On each assay plate six wells for the virus control (untreated HepAD38 cells) and six wells for the cell control (HepAD38 cells treated with 0.3 μg/ml tetracycline) were allocated, respectively. In addition, one plate set with reference inhibitors like BAY 41-4109, entecavir, and lamivudine instead of screening compounds were prepared in each experiment. In general, experiments were performed thrice in triplicates. At day 6 HBV DNA from 100 μl filtrated cell culture supernatant (AcroPrep Advance 96 Filter Plate, […] Supor membran, PALL GmbH, Dreieich) was automatically purified on the MagNa Pure LC instrument using the MagNA Pure 96 DNA and Viral NA Small Volume Kit (Roche Diagnostics, Mannheim) according to the instructions of the manufacturer. EC50 values were calculated from relative copy numbers of HBV DNA. In brief, 5 μl of the 100 μl eluate containing HBV DNA were subjected to PCR LC480 Probes Master Kit (Roche) together with 1 μM antisense primer […], 0.5 μM sense primer […], 0.3 μM hybprobes […]-FL and LC640-[…]-PH (TIBMolBiol, Berlin) to a final volume of 12.5 μl. The PCR was performed on the Light Cycler 480 real time system (Roche Diagnostics, Mannheim) using the following protocol: Pre-incubation for 1 min at 95° C., amplification: 40 cycles×(10 sec at 95° C., 50 sec at 60° C., 1 sec at 70° C.), cooling for 10 sec at 40° C. Viral load was quantitated against known standards using HBV plasmid DNA of pCH-9/3091 (Nassal et al., 1990, Cell 63: 1357-1363) and the LightCycler 480 SW 1.5 software (Roche Diagnostics, Mannheim) and EC50 values were calculated using non-linear regression with GraphPad Prism 6 (GraphPad Software Inc., La Jolla, USA).

[1] = 144 h, HBV DNA in HepAD38 supernatant at day 6

Chain of HBV core protein (P03146 whole entry, looked up): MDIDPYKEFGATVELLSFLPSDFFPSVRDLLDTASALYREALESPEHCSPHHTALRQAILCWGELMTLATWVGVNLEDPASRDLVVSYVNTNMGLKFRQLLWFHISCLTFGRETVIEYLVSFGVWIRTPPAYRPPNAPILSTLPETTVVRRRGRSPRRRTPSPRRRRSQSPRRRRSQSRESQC

SMILES	pIC50 (HBV core protein)	pEC50 (HBV; [1])	pEC50 (HBV; HePAD38, 144 h)
O=C(c1cc2ccccc2[nH]1)N1CCc2nc(NCCc3c[nH]cn3)sc2C1 [Example 286, N-[2-(1H-imidazol-4-yl)ethyl]-5-(1H-indole-2-carbonyl)-4H,5H,6H,7H-[1,3]thiazolo[5,4-c]pyridin-2-amine]	> 5.30	> 6.00	
O=C(c1cc2ccccc2[nH]1)N1CCc2nc(NC[C@H]3C[C@@H]4CC[C@H]3O4)sc2C1 (racemic) [Example 34, (+/−)-cis-5-(1H-indole-2-carbonyl)-N-{1[(1R,2R,4S)-7-oxabicyclo[2.2.1]heptan-2-yl]methyl}-4H,5H,6H,7H-[1,3]thiazolo[5,4-c]pyridin-2-amine]	> 5.30	> 6.00	
CC(C)(C)CC(=O)Nc1nc2c(s1)CN(C(=O)c1cc3ccccc3[nH]1)CC2 [Example 26, N-[5-(1H-indole-2-carbonyl)-4H,5H,6H,7H-[1,3]thiazolo[5,4-c]pyridin-2-yl]-3,3-dimethylbutanamide]	5.00 to 5.30	> 6.00	
CC(F)(F)c1cccc2[nH]c(C(=O)N3CCc4nc(NC(=O)C5CCOCC5)sc4C3)cc12 [Example 399, N-{5-[4-(1,1-difluoroethyl)-1H-indole-2-carbonyl]-4H,5H,6H,7H-[1,3]thiazolo[5,4-c]pyridin-2-yl}oxane-4-carboxamide]	> 5.30	5.00 to 6.00	
O=C(c1cc2ccccc2[nH]1)N1CCc2nc(NC3CC(CO)(CO)C3)sc2C1 [Example 42, [1-(hydroxymethyl)-3-{[5-(1H-indole-2-carbonyl)-4H,5H,6H,7H-[1,3]thiazolo[5,4-c]pyridin-2-yl]amino}cyclobutyl]methanol]	> 5.30	> 6.00	
O=C(c1cc2c(C(F)F)ccc(F)c2[nH]1)N1CCc2nc(NCC3CCOC3)sc2C1 (stereo not shown) [Example 322, 5-[4-(difluoromethyl)-7-fluoro-1H-indole-2-carbonyl]-N-[(oxolan-3-yl)methyl]-4H,5H,6H,7H-[1,3]thiazolo[5,4-c]pyridin-2-amine]	> 5.30	> 6.00	
O=C(c1cc2c(CO)cccc2[nH]1)N1CCc2nc(NCC3CCOC3)sc2C1 (stereo not shown) [Example 245, [2-(2-{[(oxolan-3-yl)methyl]amino}-4H,5H,6H,7H-[1,3]thiazolo[5,4-c]pyridine-5-carbonyl)-1H-indol-4-yl]methanol]	> 4.00	> 6.00	
O=C(c1cc2c(F)cc(F)cc2[nH]1)N1CCc2nc(NCC3CCOC3)sc2C1 (stereo not shown) [Example 119, 5-(4,6-difluoro-1H-indole-2-carbonyl)-N-[(oxolan-3-yl)methyl]-4H,5H,6H,7H-[1,3]thiazolo[5,4-c]pyridin-2-amine]	> 5.30	> 6.00	
Cc1nc2c(s1)CN(C(=O)c1cc3c(Cl)c(Cl)ccc3[nH]1)CC2 [Example 185, 4,5-dichloro-2-{2-methyl-4H,5H,6H,7H-[1,3]thiazolo[5,4-c]pyridine-5-carbonyl}-1H-indole]	> 4.00	> 4.00	
O=C(c1cc2ccccc2[nH]1)N1CCc2nc(N[C@@H]3CCCC[C@H]3O)sc2C1 [Example 269, (1R,2R)-2-{[5-(1H-indole-2-carbonyl)-4H,5H,6H,7H-[1,3]thiazolo[5,4-c]pyridin-2-yl]amino}cyclohexan-1-ol]	> 5.30	> 6.00	
O=C(c1cc2ccccc2[nH]1)N1CCc2nc(NCC(F)(F)C3CC3)sc2C1 [Example 436, N-(2-cyclopropyl-2,2-difluoroethyl)-5-(1H-indole-2-carbonyl)-4H,5H,6H,7H-[1,3]thiazolo[5,4-c]pyridin-2-amine]		> 6.00	
CC(C)CC(CO)CNc1nc2c(s1)CN(C(=O)c1cc3ccccc3[nH]1)CC2 (stereo not shown) [Example 287, 2-({[5-(1H-indole-2-carbonyl)-4H,5H,6H,7H-[1,3]thiazolo[5,4-c]pyridin-2-yl]amino}methyl)-4-methylpentan-1-ol]		> 6.00	
O=C(c1cc2ccccc2[nH]1)N1CCc2nc(NCCn3ccnc3)sc2C1 [Example 349, N-[2-(1H-imidazol-1-yl)ethyl]-5-(1H-indole-2-carbonyl)-4H,5H,6H,7H-[1,3]thiazolo[5,4-c]pyridin-2-amine]		> 6.00	
O=C(c1cc2ccccc2[nH]1)N1CCc2nc(NC(=O)C3(O)CC3)sc2C1 [Example 346, 1-hydroxy-N-[5-(1H-indole-2-carbonyl)-4H,5H,6H,7H-[1,3]thiazolo[5,4-c]pyridin-2-yl]cyclopropane-1-carboxamide]		> 6.00	
O=C(Nc1nc2c(s1)CN(C(=O)c1cc3c(F)c(F)ccc3[nH]1)CC2)C1CCOCC1 [Example 398, N-[5-(4,5-difluoro-1H-indole-2-carbonyl)-4H,5H,6H,7H-[1,3]thiazolo[5,4-c]pyridin-2-yl]oxane-4-carboxamide]		> 6.00	
O=C(Nc1nc2c(s1)CN(C(=O)c1cc3ccccc3[nH]1)CC2)C1CNC1 [Example 386, N-[5-(1H-indole-2-carbonyl)-4H,5H,6H,7H-[1,3]thiazolo[5,4-c]pyridin-2-yl]azetidine-3-carboxamide hydrochloride]			5.00 to 6.00
O=C(c1cc2cc(F)c(F)cc2[nH]1)N1CCc2nc(NCC3(O)CCC3)sc2C1 [Example 369, 1-({[5-(5,6-difluoro-1H-indole-2-carbonyl)-4H,5H,6H,7H-[1,3]thiazolo[5,4-c]pyridin-2-yl]amino}methyl)cyclobutan-1-ol]		> 6.00	
O=C(c1cc2ccccc2[nH]1)N1CCc2nc(Cl)sc2C1 [Example 207, 2-{2-chloro-4H,5H,6H,7H-[1,3]thiazolo[5,4-c]pyridine-5-carbonyl}-1H-indole]		> 4.00	
